# Measured values as given in patent publication US7456293B2, “Substituted carboxylic acid derivatives for the treatment of diabetes and lipid disorders, their preparation and use” (SK Holding Co., Ltd, priority 2005, dated 2008).
# Marks after values point to notes of the source that are not given here.
# Columns and labels:
# db/db mice [1] = test: Efficacy test for blood glucose and plasma lipid lowering (db/db mice); assay type: in vivo; conditions: male db/db mice, oral; for BG % max reduction d14 / Fatty Acid % max reduction d14 / Insulin % max reduction d14 / TG % max reduction d14: day 14, vs vehicle; for Insulin % max reduction d7: day 7, vs vehicle
# Description: Mice used in this study were standard model of type II diabetes developed by Jackson Laboratories (Bar Harbor, Me.). Mice (male, 8-wk-old db/db) were housed six per cage in hanging wire bottom cages with standard laboratory conditions. The mice had free access to normal chow (Purina Rodent Chow) and water. At the age of 8-10 weeks, the mice were bled from the tail for glucose matching among the groups (n=6 per group). To test the PPAR-γ effect of the compounds of Examples 1, 2, 3, 4 and 6, mice were then dosed orally with vehicle (CMC) or with two different concentrations (3 or 10 mg/kg/d) of each compound for 7-14 days. Each compound of Examples 1, 2, 3, 4 and 6 was dosed as suspension in 0.5% CMC+0.2% Tween 80 in sterile water. Fresh suspension was prepared for 8 days dosing and kept in a refrigerator. The suspension was administered orally by gavage daily in the morning. The control group received vehicle (dose 10 mL/kg). Blood glucose concentrations (in fed state) were monitored at basal and 3 h post dose on day 14 either by putting a drop of blood from tails on a glucose strip for analysis by a glucometer or using a 10 μL plasma sample in a YSI (Yellow Spring Instruments, OH) analyzer. […] The results are expressed in Table 2 as % maximal reduction that is achieved relative to vehicle treated control group. Animals having more than 300 mg/dL of blood glucose were used for testing. Statistical significance (* P<0.05; ** P<0.01) is given versus the appropriate sample in vehicle treated animals.
# 3T3-L1 adipocytes = test: Insulin-stimulated glucose uptake (2-deoxy-D-glucose) in differentiated 3T3-L1 adipocytes; assay type: cell-based
# Description: Adipocyte differentiation was then induced using standard protocol. […] The maintenance medium was changed every 3 days until the cells were utilized for experimentation. […] In each instance, the medium was changed twice a day. […]
# hPPAR-α = target: T1, hPPAR-α (Homo sapiens, UniProt Q07869); test: In vitro hPPAR-α transactivation (GAL4 fusion, SPRAT cells, luciferase); assay type: cell-based
# T1 construct: expressed in transfected cells
# T1 sequence (Q07869 239-466 limits assumed): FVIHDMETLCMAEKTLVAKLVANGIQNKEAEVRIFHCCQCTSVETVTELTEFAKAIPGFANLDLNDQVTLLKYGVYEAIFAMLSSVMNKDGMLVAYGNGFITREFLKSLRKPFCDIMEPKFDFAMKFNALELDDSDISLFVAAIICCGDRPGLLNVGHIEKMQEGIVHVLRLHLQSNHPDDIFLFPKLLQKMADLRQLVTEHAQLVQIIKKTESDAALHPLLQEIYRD
# hPPAR-γ = target: T2, hPPAR-γ (Homo sapiens, UniProt P37231); test: In vitro hPPAR-γ transactivation (GAL4 fusion, SPRAT cells, luciferase); assay type: cell-based
# T2 construct: expressed in transfected cells
# T2 sequence (P37231 238-503 limits assumed): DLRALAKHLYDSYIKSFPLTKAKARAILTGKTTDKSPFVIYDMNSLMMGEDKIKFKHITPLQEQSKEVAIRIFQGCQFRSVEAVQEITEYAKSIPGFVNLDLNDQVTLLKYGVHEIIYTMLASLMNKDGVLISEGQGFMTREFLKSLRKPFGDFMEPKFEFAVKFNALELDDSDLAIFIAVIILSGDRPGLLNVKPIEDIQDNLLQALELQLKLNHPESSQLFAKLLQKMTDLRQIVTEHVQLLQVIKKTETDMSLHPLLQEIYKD
# hPPAR-δ = target: T3, hPPAR-δ (Homo sapiens, UniProt Q03181); test: In vitro hPPAR-δ transactivation (GAL4 fusion, SPRAT cells, luciferase); assay type: cell-based; conditions: for EC50: 6 hours, read-out: PPAR-δ EC50; for PPAR-δ % Max: relative to TTA = 100
# T3 construct: expressed in transfected cells
# T3 sequence (Q03181 211-439 limits assumed): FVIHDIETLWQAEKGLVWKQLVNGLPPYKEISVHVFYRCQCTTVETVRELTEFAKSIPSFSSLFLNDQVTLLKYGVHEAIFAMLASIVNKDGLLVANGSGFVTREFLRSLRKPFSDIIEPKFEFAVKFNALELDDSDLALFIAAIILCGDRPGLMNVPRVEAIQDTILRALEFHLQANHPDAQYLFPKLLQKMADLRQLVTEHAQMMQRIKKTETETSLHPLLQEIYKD
# db/db mice [2] = test: Oral glucose tolerance test (OGTT) in db/db mice; assay type: in vivo
# Method: OGTT was performed in db/db mice after dosing of either 3 or 10 mg/kg of the compound of Example 1 for 9 days. The animals were dosed with 10% glucose in water in a volume of 10 mL/kg. Blood samples were taken at 0, 30, 60 and 120 min post dose.
# [3] = test system: human ApoA1 transgenic mice; test: Changes in plasma ApoA1, HDL cholesterol and TG levels (human ApoA1 transgenic mice); assay type: in vivo; conditions: for ApoA1 % increase / HDL Cholesterol % increase / TG % decrease: oral, 8 days
# Method: Homozygous human ApoA1 transgenic mouse strains (C57BL/6-TgN1Rub) were purchased from Jackson Laboratories (Bar Harbor, Me.). The mice were grouped by six and housed in hanging wire bottom cages with standard laboratory conditions. The mice had free access to normal chow (Purina Rodent Chow) and water. The grouped mice were then dosed orally with vehicle (CMC) or with different concentrations of the compound of Example 1 (3, 10 or 30 mg/kg/d) for 8 days. Compounds were dosed as suspension in 0.5% CMC+0.2% Tween 80 in sterile water. Fresh suspension was prepared for 8 days dosing and kept in a refrigerator. The suspension was administered orally by gavage daily in the morning. The control group received vehicle (dose 10 mL/kg). Blood samples were collected by cardiac puncture, centrifuged and analyzed for ApoA1, HDL cholesterol, and triglyceride.
# [4] = test system: high cholesterol-fed rats; test: Changes in plasma lipid parameters (high cholesterol-fed rats); assay type: in vivo; conditions: 10 mg/kg
# Method: Blood was collected and analyzed for non-fasted total cholesterol and free fatty acid levels. The results are calculated as the percent reduction relative to vehicle control.
# [5] = oral, 4 days, vs vehicle control
smiles,measurement,setting,value
"CCOC(Cc1ccc(OCCn2c(C(F)(F)F)nc3cc(F)ccc32)cc1)C(=O)O (stereo not drawn) [Example 4, 3-(4-{2-[5-fluoro-2-(trifluoromethyl)-1H-benzimidazol-1-yl]ethoxy}phenyl)-2-ethoxypropanoic acid]",BG % max reduction d14,db/db mice [1]; 3 mg/kg,68** %
same,Fatty Acid % max reduction d14,db/db mice [1]; 3 mg/kg,25** %
same,Insulin % max reduction d14,db/db mice [1]; 3 mg/kg,79** (d14) %
same,TG % max reduction d14,db/db mice [1]; 3 mg/kg,64** %
same,BG % max reduction d14,db/db mice [1]; 10 mg/kg,73** %
same,Fatty Acid % max reduction d14,db/db mice [1]; 10 mg/kg,27** %
same,Insulin % max reduction d14,db/db mice [1]; 10 mg/kg,79** (d14) %
same,TG % max reduction d14,db/db mice [1]; 10 mg/kg,58** %
"CCOC(Cc1ccc(OCCn2c(C(F)(F)C(F)(F)F)nc3ccccc32)cc1)C(=O)O (stereo not drawn) [Example 2, 2-ethoxy-3-(4-{2-[2-(pentafluoroethyl)-1H-benzimidazol-1-yl]ethoxy}phenyl)propanoic acid]",BG % max reduction d14,db/db mice [1]; 3 mg/kg,57** %
same,Fatty Acid % max reduction d14,db/db mice [1]; 3 mg/kg,45** %
same,Insulin % max reduction d14,db/db mice [1]; 3 mg/kg,59** (d14) %
same,TG % max reduction d14,db/db mice [1]; 3 mg/kg,50** %
same,BG % max reduction d14,db/db mice [1]; 10 mg/kg,75** %
same,Fatty Acid % max reduction d14,db/db mice [1]; 10 mg/kg,71** %
same,Insulin % max reduction d14,db/db mice [1]; 10 mg/kg,75** (d14) %
same,TG % max reduction d14,db/db mice [1]; 10 mg/kg,70** %
"CCO[C@@H](Cc1ccc(OCCn2c(C(F)(F)F)nc3ccccc32)cc1)C(=O)O [Example 6, (2S)-3-{4-[2-(2-trifluoromethyl-benzoimidazol-1-yl)-ethoxy]-phenyl}-2-ethoxy-propionic acid]","insulin-stimulated glucose uptake, enantio-dependency","3T3-L1 adipocytes; each enantiomer vs racemate, FIG. 2",statistically significant difference (P<0.01) over racemate
same,Insulin % max reduction d7,db/db mice [1]; 3 mg/kg,87** (d7) %
same,BG % max reduction d14,db/db mice [1]; 3 mg/kg,53** %
same,Fatty Acid % max reduction d14,db/db mice [1]; 3 mg/kg,54** %
same,TG % max reduction d14,db/db mice [1]; 3 mg/kg,62** %
same,Insulin % max reduction d7,db/db mice [1]; 10 mg/kg,86** (d7) %
same,BG % max reduction d14,db/db mice [1]; 10 mg/kg,73** %
same,Fatty Acid % max reduction d14,db/db mice [1]; 10 mg/kg,60** %
same,TG % max reduction d14,db/db mice [1]; 10 mg/kg,66** %
"CCOC(Cc1ccc(OCCn2c(C(F)(F)F)nc3cc(C(F)(F)F)ccc32)cc1)C(=O)O (stereo not drawn) [Example 3, 3-(4-{2-[2,5-bis(trifluoromethyl)-1H-benzimidazol-1-yl]ethoxy}phenyl)-2-ethoxypropanoic acid]",BG % max reduction d14,db/db mice [1]; 3 mg/kg,77** %
same,Fatty Acid % max reduction d14,db/db mice [1]; 3 mg/kg,49** %
same,Insulin % max reduction d14,db/db mice [1]; 3 mg/kg,76** (d14) %
same,TG % max reduction d14,db/db mice [1]; 3 mg/kg,61** %
same,BG % max reduction d14,db/db mice [1]; 10 mg/kg,77** %
same,Fatty Acid % max reduction d14,db/db mice [1]; 10 mg/kg,76** %
same,Insulin % max reduction d14,db/db mice [1]; 10 mg/kg,79** (d14) %
same,TG % max reduction d14,db/db mice [1]; 10 mg/kg,77** %
"CCOC(Cc1ccc(OCCn2c(C(F)(F)F)nc3ccccc32)cc1)C(=O)O (racemic) [Example 1, 2-ethoxy-3-(4-{2-[2-(trifluoromethyl)-1H-benzimidazol-1-yl]ethoxy}phenyl)propanoic acid]",glucose transport activity,"3T3-L1 adipocytes; 1 μM compound in the presence of 100 nM insulin, 48 h, FIG. 1",significantly increased
same,glucose transport,"3T3-L1 adipocytes; separate treatment: 1 μM compound alone or 100 nM insulin alone, 48 h, 3T3-L1 adipocytes",increase in glucose transport
same,EC50,"hPPAR-α; 6 hours, read-out: PPAR-α EC50",17.2 µM
same,PPAR-α % Max,hPPAR-α; relative to Reference (α) = 100,44%
same,EC50,"hPPAR-γ; 6 hours, read-out: PPAR-γ EC50",0.04 µM
same,PPAR-γ % Max,hPPAR-γ; relative to Rosiglitazone = 100,62%
same,EC50,hPPAR-δ,50 µM
same,PPAR-δ % Max,hPPAR-δ,68%
same,Insulin % max reduction d7,db/db mice [1]; 3 mg/kg,85** (d7) %
same,BG % max reduction d14,db/db mice [1]; 3 mg/kg,69** %
same,Fatty Acid % max reduction d14,db/db mice [1]; 3 mg/kg,47** %
same,TG % max reduction d14,db/db mice [1]; 3 mg/kg,52** %
same,Insulin % max reduction d7,db/db mice [1]; 10 mg/kg,87** (d7) %
same,BG % max reduction d14,db/db mice [1]; 10 mg/kg,73** %
same,Fatty Acid % max reduction d14,db/db mice [1]; 10 mg/kg,72** %
same,TG % max reduction d14,db/db mice [1]; 10 mg/kg,55** %
same,"AUC for blood glucose, reduction vs vehicle control",db/db mice [2]; 3 mg/kg for 9 days,49%
same,"AUC for blood glucose, reduction vs vehicle control",db/db mice [2]; 10 mg/kg for 9 days,48%
same,ApoA1 % increase,[3]; 3 mg/kg,52%
same,HDL Cholesterol % increase,[3]; 3 mg/kg,47* %
same,TG % decrease,[3]; 3 mg/kg,52* %
same,ApoA1 % increase,[3]; 10 mg/kg,137%
same,HDL Cholesterol % increase,[3]; 10 mg/kg,73** %
same,TG % decrease,[3]; 10 mg/kg,56** %
same,ApoA1 % increase,[3]; 30 mg/kg,186%
same,HDL Cholesterol % increase,[3]; 30 mg/kg,51** %
same,TG % decrease,[3]; 30 mg/kg,67** %
same,HDL-cholesterol (in words),[3]; through increase in human ApoA1 levels,greatly increased HDL-cholesterol
same,plasma total cholesterol and free fatty acid levels (in words),[4],significantly reduced
same,Free Fatty Acid % reduction,[4]; [5],68** %
same,Total Cholesterol % reduction,[4]; [5],69** %
"CCCCCCCCCCCCCCSCC(=O)O [TTA (δ), reference compound]",EC50,hPPAR-δ,38 µM
same,PPAR-δ % Max,hPPAR-δ,100%
